In patent US4448962A, “Substituted quinoline carboxylic acid derivatives” (Kyorin Seiyaku Kabushiki Kaisha, priority 1978, dated 1984):
Converted amounts (≈) assume the structure as drawn. Where a name gives a salt, the structure may show the parent alone. Read-outs that look alike come from different tables or passages of the source.

Assays:
Assay in all cases: Antibacterial spectrum (Minimum Inhibitory Concentration)
Assay type in all cases: cell-based
E. coli ATCC 10536 = conditions: Escherichia coli
Description: (§1) The antibacterial tests were done according to the method authorized by the Chemotherapeutic Society of Japan.

[1] = system: Escherichia coli NIHJ JC-2
Description: as §1

[2] = system: Klebsiella pneumoniae IFO 3512
Description: as §1

Pr. vulgaris XK Denken = conditions: Proteus vulgaris, read-out: Minimum Inhibitory Concentration
Description: as §1

[3] = system: Proteus vulgaris IFO 3167
Description: as §1

Ps. aeruginosa IFO 12689 = conditions: Pseudomonas aeruginosa
Description: as §1

[4] = system: Pseudomonas aeruginosa V-1
Description: as §1

[5] = system: Bacillus subtilis PCI 219
Description: as §1

Ps. aeruginosa IID 1130 = conditions: Pseudomonas aeruginosa, IID1130, read-out: Minimum Inhibitory Concentration
Description: as §1

Ps. aeruginosa IID 1210 = conditions: Pseudomonas aeruginosa, IID1210, read-out: Minimum Inhibitory Concentration
Description: as §1

Sta. aureus ATCC 14775 = conditions: Staphylococcus aureus
Description: as §1

[6] = system: Staphylococcus aureus 209P; conditions: read-out: Minimum Inhibitory Concentration
Description: as §1

[7] = ATCC10536, E. coli ATCC 10536, Gram -, read-out: Minimum Inhibitory Concentration
[8] = NIHJJC2, Escherichia coli NIHJ JC-2, Gram -, read-out: Minimum Inhibitory Concentration
[9] = IFO3512, Klebsiella pneumoniae IFO 3512, Gram -, read-out: Minimum Inhibitory Concentration
[10] = IFO3167, Proteus vulgaris IFO 3167, Gram -, read-out: Minimum Inhibitory Concentration
[11] = IFO12689, read-out: Minimum Inhibitory Concentration
[12] = V1, Pseudomonas aeruginosa V-1, Gram -, read-out: Minimum Inhibitory Concentration
[13] = Bacillus subtilis, PCI219, read-out: Minimum Inhibitory Concentration
[14] = ATCC10536, read-out: Minimum Inhibitory Concentration
[15] = Escherichia coli, NIHJJC2, read-out: Minimum Inhibitory Concentration
[16] = Klebsiella pneumoniae, IFO3512, read-out: Minimum Inhibitory Concentration
[17] = Proteus vulgaris, IFO3167, read-out: Minimum Inhibitory Concentration
[18] = Pseudomonas aeruginosa, V1, read-out: Minimum Inhibitory Concentration
[19] = ATCC14775, read-out: Minimum Inhibitory Concentration
[20] = PCI219, Bacillus subtilis PCI 219, Gram +, read-out: Minimum Inhibitory Concentration
[21] = IFO12689, Ps. aeruginosa IFO 12689, Gram -, read-out: Minimum Inhibitory Concentration
[22] = Staphylococcus aureus 209P, Gram +
[23] = ATCC14775, Sta. aureus ATCC 14775, Gram +, read-out: Minimum Inhibitory Concentration

Row | Structure (SMILES) | MIC (E. coli ATCC 10536; [7]) [µg/mL] | MIC [1, 8] [µg/mL] | MIC [2, 9] [µg/mL] | MIC (Pr. vulgaris XK Denken; Pr. vulgaris XK Denken, Gram -) [µg/mL] | MIC [3, 10] [µg/mL] | MIC (Ps. aeruginosa IFO 12689; [11]) [µg/mL] | MIC [4, 12] [µg/mL] | MIC [5, 20] [µg/mL] | MIC (Ps. aeruginosa IFO 12689; [21]) [µg/mL] | MIC [6, 22] [µg/mL] | MIC (Sta. aureus ATCC 14775; [23]) [µg/mL] | also measured
1 | CCN1CCN(c2cc3c(cc2F)c(=O)c(C(=O)O)cn3CC)CC1 [Example 2, 1-ethyl-6-fluoro-7-(4-ethyl-1-piperazinyl)-4-oxo-1,4-dihydroquinoline-3-carboxylic acid] | 0.1 (≈ 0.288 µM) | 0.1 (≈ 0.288 µM) | < 0.025 | 0.2 (≈ 0.576 µM) | 0.2 (≈ 0.576 µM) | 6.25 (≈ 18 µM) | 3.13 (≈ 9.01 µM) |  |  |  |  | 
2 | C=Cn1cc(C(=O)O)c(=O)c2cc(F)c(N3CCNCC3)cc21.Cl [Example 3, 1-vinyl-6-fluoro-7-(1-piperazinyl)-4-oxo-1,4-dihydro-quinoline-3-carboxylic acid hydrochloride] |  |  |  |  |  | 1.56 |  |  |  |  |  | MIC [5, 13]: 0.39 µg/mL; MIC (E. coli ATCC 10536; [14]): 0.1 µg/mL; MIC [1, 15]: 0.1 µg/mL; MIC [2, 16]: 0.1 µg/mL; MIC (Pr. vulgaris XK Denken): 0.39 µg/mL; MIC [3, 17]: 0.2 µg/mL; MIC (Ps. aeruginosa IID 1130): 1.56 µg/mL; MIC (Ps. aeruginosa IID 1210): 1.56 µg/mL; MIC [4, 18]: 0.39 µg/mL; MIC (Sta. aureus ATCC 14775; [19]): 6.25 µg/mL; MIC ([6]; Staphylococcus aureus, 209P): 3.13 µg/mL
3 | CCn1cc(C(=O)O)c(=O)c2cc(Cl)c(N3CCN(C)CC3)cc21 [Example 9, 1-ethyl-6-chloro-7-(4-methyl-1-piperazinyl)-4-oxo-1,4-dihydro-quinoline-3-carboxylic acid] | 0.78 (≈ 2.23 µM) | 1.56 (≈ 4.46 µM) |  | 0.78 (≈ 2.23 µM) | 0.78 (≈ 2.23 µM) |  | 25 (≈ 71.5 µM) | 0.78 (≈ 2.23 µM) | 50 (≈ 143 µM) | 1.56 (≈ 4.46 µM) |  | MIC [2, 16]: < 0.2 µg/mL
4 | CCN1CCN(c2cc3c(cc2Cl)c(=O)c(C(=O)O)cn3CC)CC1 [Example 10, 1-ethyl-6-chloro-7-(4-ethyl-1-piperazinyl)-4-oxo-1,4-dihydroquinoline-3-carboxylic acid] | 0.78 (≈ 2.14 µM) | 1.56 (≈ 4.29 µM) | < 0.2 | 1.56 (≈ 4.29 µM) | 1.56 (≈ 4.29 µM) |  | 50 (≈ 137 µM) | 0.78 (≈ 2.14 µM) | > 100 | 0.78 (≈ 2.14 µM) |  | 
5 | CCn1cc(C(=O)O)c(=O)c2cc(Cl)c(N3CCN(Cc4ccccc4)CC3)cc21 [Example 11, 1-ethyl-6-chloro-7-(4-benzyl-1-piperazinyl)-4-oxo-1,4-dihydroquinoline-3-carboxylic acid] | 25 (≈ 58.7 µM) | 100 (≈ 235 µM) | 0.78 (≈ 1.83 µM) | 50 (≈ 117 µM) | 100 (≈ 235 µM) |  |  | 1.56 (≈ 3.66 µM) | > 100 | 3.13 (≈ 7.35 µM) |  | MIC [4, 18]: > 100 µg/mL
6 | CCn1cc(C(=O)O)c(=O)c2cc(Cl)c(N3CCN(C(=O)C(F)(F)F)CC3)cc21 [Example 12, 1-ethyl-6-chloro-7-(4-trifluoroacetyl-1-piperazinyl)-4-oxo-1,4-dihydroquinoline-3-carboxylic acid] | 0.78 (≈ 1.81 µM) |  | 0.78 (≈ 1.81 µM) | 0.78 (≈ 1.81 µM) | 0.78 (≈ 1.81 µM) |  | 25 (≈ 57.9 µM) | 0.78 (≈ 1.81 µM) | 50 (≈ 116 µM) | 1.56 (≈ 3.61 µM) |  | MIC [1, 15]: 3.13 µg/mL (≈ 7.25 µM)
7 | CCn1cc(C(=O)O)c(=O)c2cc(Cl)c(N3CCN(C4OC(=O)c5ccccc54)CC3)cc21 (centres unmarked) [Example 15, 1-ethyl-6-chloro-7-(4-phthalidyl-1-piperazinyl)-4-oxo-1,4-dihydroquinoline-3-carboxylic acid] | 0.2 (≈ 0.427 µM) | 0.2 (≈ 0.427 µM) | 0.78 (≈ 1.67 µM) | 0.39 (≈ 0.833 µM) | 0.39 (≈ 0.833 µM) |  | 6.25 (≈ 13.4 µM) | 0.78 (≈ 1.67 µM) | 12.5 (≈ 26.7 µM) | 1.56 (≈ 3.33 µM) |  | 
8 | CCn1cc(C(=O)O)c(=O)c2ccc(N3CCNCC3)c(F)c21 [Example 16, 1-ethyl-7-(1-piperazinyl)-8-fluoro-4-oxo-1,4-dihydroquinoline-3-carboxylicacid hydrochloric] | 0.78 (≈ 2.44 µM) | 0.78 (≈ 2.44 µM) | 0.2 (≈ 0.626 µM) | 1.56 (≈ 4.89 µM) | 0.78 (≈ 2.44 µM) |  | 1.56 (≈ 4.89 µM) | 3.13 (≈ 9.8 µM) | 12.5 (≈ 39.1 µM) | 12.5 (≈ 39.1 µM) | 25 (≈ 78.3 µM) | 
9 | CCOC(=O)c1cn(CC)c2cc(N3CCNCC3)c(F)cc2c1=O [Example 17, 1-ethyl-6-fluoro-7-(1-piperazinyl)-4-oxo-1,4-dihydroquinoline-3-carboxylicacid ethyl ester] | 6.25 (≈ 18 µM) | 12.5 (≈ 36 µM) | 6.25 (≈ 18 µM) | 25 (≈ 72 µM) | 12.5 (≈ 36 µM) |  | 50 (≈ 144 µM) | 50 (≈ 144 µM) | > 100 | 50 (≈ 144 µM) | 100 (≈ 288 µM) | 
10 | Cl.Cn1cc(C(=O)O)c(=O)c2cc(F)c(N3CCNCC3)cc21 [Example 18, 1-methyl-6-fluoro-7-(1-piperazinyl)-4-oxo-1,4-dihydroquinoline-3-carboxylic acid hydrochloride] |  |  |  |  |  | 3.13 |  |  |  |  |  | MIC [5, 13]: 0.78 µg/mL; MIC (E. coli ATCC 10536; [14]): 0.39 µg/mL; MIC [1, 15]: 0.39 µg/mL; MIC [2, 16]: 0.39 µg/mL; MIC (Pr. vulgaris XK Denken): 1.56 µg/mL; MIC [3, 17]: 0.39 µg/mL; MIC [4, 18]: 1.56 µg/mL; MIC (Sta. aureus ATCC 14775; [19]): 12.5 µg/mL; MIC ([6]; Staphylococcus aureus, 209P): 6.25 µg/mL
11 | CCCn1cc(C(=O)O)c(=O)c2cc(F)c(N3CCNCC3)cc21 [Example 19, 1-propyl-6-fluoro-7-(1-piperazinyl)-4-oxo-1,4-dihydroquinoline-3-carboxylic acid hydrochloride] | 0.39 | 0.2 | 0.2 | 0.39 | 0.2 |  | 3.13 | 0.39 | 12.5 | 1.56 | 3.13 | 
12 | O=C(O)c1cn(Cc2ccccc2)c2cc(N3CCNCC3)c(F)cc2c1=O [Example 20, 1-benzyl-6-fluoro-1,4-dihydro-4-oxo-7-(1-piperazinyl)-quinoline-3-carboxylic acid] | 0.39 (≈ 1.02 µM) | 0.78 (≈ 2.05 µM) | 0.39 (≈ 1.02 µM) | 0.78 (≈ 2.05 µM) | 0.39 (≈ 1.02 µM) | 6.25 (≈ 16.4 µM) | 1.56 (≈ 4.09 µM) | 0.78 (≈ 2.05 µM) |  | 1.56 (≈ 4.09 µM) | 6.25 (≈ 16.4 µM) | 
13 | C=CCn1cc(C(=O)O)c(=O)c2cc(F)c(N3CCNCC3)cc21 [Example 21, hydrochloride] | 0.2 | 0.2 | 0.2 | 0.39 | 0.2 | 6.25 | 1.56 | 0.78 |  | 3.13 | 6.25 | 
14 | CCn1cc(C(=O)O)c(=O)c2cc(F)c(N3CCN(N=O)CC3)cc21 [Example 24, 1-ethyl-6-fluoro-7-(4-nitroso-1-piperazinyl)-4-oxo-1,4-dihydroquinoline-3-carboxylic acid] | 0.39 (≈ 1.12 µM) | 0.39 (≈ 1.12 µM) | 0.39 (≈ 1.12 µM) | 0.39 (≈ 1.12 µM) | 0.39 (≈ 1.12 µM) |  | 3.13 (≈ 8.99 µM) | 0.39 (≈ 1.12 µM) | 6.25 (≈ 17.9 µM) | 0.39 (≈ 1.12 µM) | 0.78 (≈ 2.24 µM) | 
15 | Cl.O=C(O)c1cn(CCO)c2cc(N3CCNCC3)c(F)cc2c1=O [Example 25, 1-(2-hydroxyethyl)-6-fluoro-7-(1-piperazinyl)-4-oxo-1,4-dihydroquinoline-3-carboxylic acid hydrochloride] |  |  |  |  |  | > 25 |  |  |  |  |  | MIC [5, 13]: 1.56 µg/mL; MIC (E. coli ATCC 10536; [14]): 0.2 µg/mL; MIC [1, 15]: 0.39 µg/mL; MIC [2, 16]: 0.05 µg/mL; MIC (Pr. vulgaris XK Denken): 3.13 µg/mL; MIC [3, 17]: 0.2 µg/mL; MIC [4, 18]: 3.13 µg/mL; MIC (Sta. aureus ATCC 14775; [19]): > 25 µg/mL; MIC ([6]; Staphylococcus aureus, 209P): 1.56 µg/mL
16 | CC(=O)N1CCN(c2cc3c(cc2F)c(=O)c(C(=O)O)cn3CCO)CC1 [Example 26, 1-(2-hydroxyethyl)-6-fluoro-7-(4-acetyl-1-piperazinyl)-4-oxo-1,4-dihydroquinoline-3-carboxylic acid] | 25 (≈ 66.2 µM) | > 25 | 6.25 (≈ 16.6 µM) | > 25 | > 25 |  | > 25 | 12.5 (≈ 33.1 µM) | > 25 | > 25 | > 25 | 
17 | CCn1cc(C(=O)O)c(=O)c2cc(F)c(N3CCN(C(C)=O)CC3)cc21 [Example 29, 1-ethyl-6-fluoro-1,4-dihydro-4-oxo-7-(4-acetyl-1-piperazinyl)quinoline-3-carboxylic acid] | 1.56 (≈ 4.32 µM) | 1.56 (≈ 4.32 µM) | < 0.1 | 1.56 (≈ 4.32 µM) | 0.39 (≈ 1.08 µM) |  | 25 (≈ 69.2 µM) | 0.2 (≈ 0.553 µM) | 25 (≈ 69.2 µM) | 0.78 (≈ 2.16 µM) | 1.56 (≈ 4.32 µM) | 
